Reference: US7402548B2, “Benzoxazole compounds, process for producing the same and herbicides” (Kyoyu Agri Co., Ltd., priority 2000, dated 2008)

Tests used:
Large crabgrass [1] = assay: Soil treatment test for upland field; assay type: in vivo, Digitaria adscendens; set-up: key: 0 = normal development, 5 = all killed; conditions: 500 g/ha, 3 weeks, glass house 25° C.
Method: (§1) The herbicidal effects are evaluated according to the following 6 ranks as compared with non-treated district. (0: normal development, 1: Less damaged, 2: Slightly damaged, 3: Moderately damaged, 4: Severely damaged, 5: All killed). Incidentally, “-” in the column means not investigated.
(§2) Wagner pots, each having an area of 1/5000 are, were packed with Ube soil (alluvial soil), and then each seed of corn, soybean, cotton, wheat, solgum, sugar beat, Large crabgrass, barnyard grass, green foxtail, blackgrass, annual bluegrass, common lambsquarters, livid amaranth, velvetleaf, morning glory, common Cocklebur (Xanthium strumarium) and sicklepod (Cassia obtusifolia) were planted and covered with soil.
(§3) Each wettable powder of the desired compounds (I) shown in Tables 1 to 21, 24, 25, 28 and 29 prepared in accordance with Example 2 was diluted with water containing a surfactant (0.05%) and uniformly sprayed on the surface of each soil so that an effective concentration of the compound (I) in each herbicide became 500 g/ha.
(§4) These plants were controlled in a glass house at an average temperature of 25° C. for 3 weeks, and then herbicidal effects thereof were investigated.
(§5) The herbicidal effects were evaluated according to the evaluation method described in the above (1).

velvetleaf [2] = assay: Soil treatment test for upland field; assay type: in vivo, Abutilon theophrasti; set-up: key: 0 = normal development, 5 = all killed; conditions: 500 g/ha, 3 weeks, glass house 25° C.
Method: as §1, §2, §3, §4, §5

green foxtail [3] = assay: Foliar spread test for upland field; assay type: in vivo, Setaria viridis; set-up: key: 0 = normal development, 5 = all killed (6 ranks vs. untreated); conditions: foliar spray, 500 ppm, 3 weeks, glass house 25° C.
Method: as §1
(§6) Wagner pots, each having an area of 1/5000 are, were packed with volcanic ash soil and then each seed of corn, soybean, cotton, wheat, solgum, sugar beat, Large crabgrass, barnyardgrjass, green foxtail, blackgrass, annual bluegrass, common lambsquarters, livid amaranth, velvetleaf, morning glory, Xanthium pensylvanicum and Cassia obtusifolia was planted, covered with soil and grown in a glass house at an average temperature of 25° C. for about 2 weeks.
(§7) Each wettable powder of the desired compounds (I) shown in Tables 1 to 21, 24, 25, 28 and 29 prepared in accordance with Example 2 was diluted to 500 ppm with water containing a surfactant (0.5%) and then uniformly sprayed on the above respective plants.
(§8) After these plants were controlled in a glass house at an average temperature of 25° C. for 3 weeks, the herbicidal effects thereof were investigated.
as §5

Large crabgrass [4] = assay: Foliar spread test for upland field; assay type: in vivo, Digitaria adscendens; set-up: key: 0 = normal development, 5 = all killed (6 ranks vs. untreated); conditions: foliar spray, 500 ppm, 3 weeks, glass house 25° C.
Method: as §1, §6, §7, §8, §5

blackgrass [5] = assay: Foliar spread test for upland field; assay type: in vivo, Alopecurus aegualis; set-up: key: 0 = normal development, 5 = all killed (6 ranks vs. untreated); conditions: foliar spray, 500 ppm, 3 weeks, glass house 25° C.
Method: as §1, §6, §7, §8, §5

annual bluegrass [6] = assay: Foliar spread test for upland field; assay type: in vivo, Poa annua; set-up: key: 0 = normal development, 5 = all killed (6 ranks vs. untreated); conditions: foliar spray, 500 ppm, 3 weeks, glass house 25° C.
Method: as §1, §6, §7, §8, §5

livid amaranth [7] = assay: Foliar spread test for upland field; assay type: in vivo, Amaranthus lividus; set-up: key: 0 = normal development, 5 = all killed (6 ranks vs. untreated); conditions: foliar spray, 500 ppm, 3 weeks, glass house 25° C.
Method: as §1, §6, §7, §8, §5

morning glory [8] = assay: Soil treatment test for upland field; assay type: in vivo, Ipomoea spps.; set-up: key: 0 = normal development, 5 = all killed; conditions: 500 g/ha, 3 weeks, glass house 25° C.
Method: as §1, §2, §3, §4, §5

morning glory [9] = assay: Foliar spread test for upland field; assay type: in vivo, Ipomoea spps.; set-up: key: 0 = normal development, 5 = all killed (6 ranks vs. untreated); conditions: foliar spray, 500 ppm, 3 weeks, glass house 25° C.
Method: as §1, §6, §7, §8, §5

barnyardgrjass = assay: Foliar spread test for upland field; assay type: in vivo, Eschinochloa crusgalli; set-up: key: 0 = normal development, 5 = all killed (6 ranks vs. untreated); conditions: foliar spray, 500 ppm, 3 weeks, glass house 25° C.
Method: as §1, §6, §7, §8, §5

common lambsquarters [10] = assay: Foliar spread test for upland field; assay type: in vivo, Chenopodium album; set-up: key: 0 = normal development, 5 = all killed (6 ranks vs. untreated); conditions: foliar spray, 500 ppm, 3 weeks, glass house 25° C.
Method: as §1, §6, §7, §8, §5

velvetleaf [11] = assay: Foliar spread test for upland field; assay type: in vivo, Abutilon theophrasti; set-up: key: 0 = normal development, 5 = all killed (6 ranks vs. untreated); conditions: foliar spray, 500 ppm, 3 weeks, glass house 25° C.
Method: as §1, §6, §7, §8, §5

solgum [12] = assay: Soil treatment test for upland field; assay type: in vivo; set-up: key: 0 = normal development, 5 = all killed; conditions: 500 g/ha, 3 weeks, glass house 25° C.
Method: as §1, §2, §3, §4, §5

wheat [13] = assay: Soil treatment test for upland field; assay type: in vivo; set-up: key: 0 = normal development, 5 = all killed; conditions: 500 g/ha, 3 weeks, glass house 25° C.
Method: as §1, §2, §3, §4, §5

corn [14] = assay: Soil treatment test for upland field; assay type: in vivo; set-up: key: 0 = normal development, 5 = all killed; conditions: 500 g/ha, 3 weeks, glass house 25° C.
Method: as §1, §2, §3, §4, §5

sugar beat [15] = assay: Soil treatment test for upland field; assay type: in vivo; set-up: key: 0 = normal development, 5 = all killed; conditions: 500 g/ha, 3 weeks, glass house 25° C.
Method: as §1, §2, §3, §4, §5

barnyard grass = assay: Soil treatment test for upland field; assay type: in vivo, Eschinochloa crusgalli; set-up: key: 0 = normal development, 5 = all killed; conditions: 500 g/ha, 3 weeks, glass house 25° C.
Method: as §1, §2, §3, §4, §5

livid amaranth [16] = assay: Soil treatment test for upland field; assay type: in vivo, Amaranthus lividus; set-up: key: 0 = normal development, 5 = all killed; conditions: 500 g/ha, 3 weeks, glass house 25° C.
Method: as §1, §2, §3, §4, §5

solgum [17] = assay: Foliar spread test for upland field; assay type: in vivo; set-up: key: 0 = normal development, 5 = all killed (6 ranks vs. untreated); conditions: foliar spray, 500 ppm, 3 weeks, glass house 25° C.
Method: as §1, §6, §7, §8, §5

wheat [18] = assay: Foliar spread test for upland field; assay type: in vivo; set-up: key: 0 = normal development, 5 = all killed (6 ranks vs. untreated); conditions: foliar spray, 500 ppm, 3 weeks, glass house 25° C.
Method: as §1, §6, §7, §8, §5

corn [19] = assay: Foliar spread test for upland field; assay type: in vivo; set-up: key: 0 = normal development, 5 = all killed (6 ranks vs. untreated); conditions: foliar spray, 500 ppm, 3 weeks, glass house 25° C.
Method: as §1, §6, §7, §8, §5

sugar beat [20] = assay: Foliar spread test for upland field; assay type: in vivo; set-up: key: 0 = normal development, 5 = all killed (6 ranks vs. untreated); conditions: foliar spray, 500 ppm, 3 weeks, glass house 25° C.
Method: as §1, §6, §7, §8, §5

cotton = assay: Foliar spread test for upland field; assay type: in vivo; set-up: key: 0 = normal development, 5 = all killed (6 ranks vs. untreated); conditions: foliar spray, 500 ppm, 3 weeks, glass house 25° C.
Method: as §1, §6, §7, §8, §5

soybean = assay: Foliar spread test for upland field; assay type: in vivo; set-up: key: 0 = normal development, 5 = all killed (6 ranks vs. untreated); conditions: foliar spray, 500 ppm, 3 weeks, glass house 25° C.
Method: as §1, §6, §7, §8, §5

blackgrass [21] = assay: Soil treatment test for upland field; assay type: in vivo, Alopecurus aegualis; set-up: key: 0 = normal development, 5 = all killed; conditions: 500 g/ha, 3 weeks, glass house 25° C.
Method: as §1, §2, §3, §4, §5

annual bluegrass [22] = assay: Soil treatment test for upland field; assay type: in vivo, Poa annua; set-up: key: 0 = normal development, 5 = all killed; conditions: 500 g/ha, 3 weeks, glass house 25° C.
Method: as §1, §2, §3, §4, §5

green foxtail [23] = assay: Soil treatment test for upland field; assay type: in vivo, Setaria viridis; set-up: key: 0 = normal development, 5 = all killed; conditions: 500 g/ha, 3 weeks, glass house 25° C.
Method: as §1, §2, §3, §4, §5

common lambsquarters [24] = assay: Soil treatment test for upland field; assay type: in vivo, Chenopodium album; set-up: key: 0 = normal development, 5 = all killed; conditions: 500 g/ha, 3 weeks, glass house 25° C.
Method: as §1, §2, §3, §4, §5

SMILES	Effects Large crabgrass (Large crabgrass [1])	Effects Green foxtail (green foxtail [3])	Effects Large crabgrass (Large crabgrass [4])	Effects Blackgrass (blackgrass [5])	Effects Annual bluegrass (annual bluegrass [6])	Effects Livid amaranth (livid amaranth [7])	Effects Morning glory (morning glory [8])	Effects Morning glory (morning glory [9])	Effects Barnyardgrass (barnyardgrjass)	Effects Common lambsquarters (common lambsquarters [10])	Effects Velvetleaf (velvetleaf [11])	Effects Solgum (solgum [12])	Effects Wheat (wheat [13])	Effects Corn (corn [14])	Effects Barnyardgrass (barnyard grass)	Effects Livid amaranth (livid amaranth [16])	Effects Solgum (solgum [17])	Effects Wheat (wheat [18])	Effects Corn (corn [19])	Effects Sugar beat (sugar beat [20])	also measured
CCC(=Cc1cccc(C(F)(F)F)c1)c1nc2ccc([N+](=O)[O-])cc2o1 [I-c-15]	5	4	4	3	4	5	2	5	3	5	3	1	1	1	4	5	2	2	2	4	Effects Velvetleaf (velvetleaf [2]): 2; Effects Sugar beat (sugar beat [15]): 2; Effects Sotton (cotton): 3; Effects Soybean (soybean): 5; Effects Blackgrass (blackgrass [21]): 5; Effects Annual bluegrass (annual bluegrass [22]): 5; Effects Green foxtail (green foxtail [23]): 5; Effects Common lambsquarters (common lambsquarters [24]): 5
CC(=Cc1cccc(C(F)(F)F)c1)c1nc2cc(F)ccc2o1 [I-c-40]	5	2	3	2	2	4	3	3	1	4	1	2	0	0	5	5	1	1	2	4	Effects Sugar beat (sugar beat [15]): 1; Effects Sotton (cotton): 1; Effects Soybean (soybean): 4; Effects Blackgrass (blackgrass [21]): 4; Effects Annual bluegrass (annual bluegrass [22]): 5; Effects Green foxtail (green foxtail [23]): 5; Effects Common lambsquarters (common lambsquarters [24]): 5
CC(=Cc1cccc(C(F)(F)F)c1)c1nc2cc(Cl)ccc2o1 [I-c-53]	5	5	4	4	4	5	2	5	1	5	3	0	1	1	5	5	1	1	3	5	Effects Velvetleaf (velvetleaf [2]): 1; Effects Sugar beat (sugar beat [15]): 5; Effects Sotton (cotton): 3; Effects Soybean (soybean): 4; Effects Blackgrass (blackgrass [21]): 5; Effects Annual bluegrass (annual bluegrass [22]): 5; Effects Green foxtail (green foxtail [23]): 5; Effects Common lambsquarters (common lambsquarters [24]): 5
CC(=Cc1cccc(C(F)(F)F)c1)c1nc2cc(C#N)c(Cl)cc2o1 [I-c-141]	5	5	3	1	3	5	5	5	1	5	4	0	0	0	4	5	1	1	2	5	Effects Velvetleaf (velvetleaf [2]): 5; Effects Sugar beat (sugar beat [15]): 5; Effects Sotton (cotton): 5; Effects Soybean (soybean): 3; Effects Blackgrass (blackgrass [21]): 4; Effects Annual bluegrass (annual bluegrass [22]): 5; Effects Green foxtail (green foxtail [23]): 5; Effects Common lambsquarters (common lambsquarters [24]): 5
CCCC(=Cc1cccc(C(F)(F)F)c1)c1nc2cc(F)c(F)cc2o1 [I-c-113]	5	5	4	4	4	5	4	5	3	5	4	2	2	2	5	5	3	2	2	5	Effects Velvetleaf (velvetleaf [2]): 5; Effects Sugar beat (sugar beat [15]): 5; Effects Sotton (cotton): 5; Effects Soybean (soybean): 5; Effects Blackgrass (blackgrass [21]): 5; Effects Annual bluegrass (annual bluegrass [22]): 5; Effects Green foxtail (green foxtail [23]): 5; Effects Common lambsquarters (common lambsquarters [24]): 5
CCCC(=Cc1cccc(C(F)(F)F)c1)c1nc2cc(Cl)ccc2o1 [I-c-57]	5	5	4	3	4	4	3	5	3	5	3	2	2	2	5	5	2	2	2	3	Effects Velvetleaf (velvetleaf [2]): 5; Effects Sotton (cotton): 4; Effects Soybean (soybean): 5; Effects Blackgrass (blackgrass [21]): 5; Effects Annual bluegrass (annual bluegrass [22]): 5; Effects Green foxtail (green foxtail [23]): 5; Effects Common lambsquarters (common lambsquarters [24]): 5
